The subject of data set [1] is 2N3M (DNA, aptamer) TGGTGGTGGTTGTTGTGGTGGTGGTGGT
Briefly: microscale thermophoresis. The conditions noted are these: 100 mM KCl; 25 mM potassium phosphate, pH 7.05, 25 °C, 200 nM aptamer. On the technique in general: MST reads how a fluorescent partner responds to local heating, with and without ligand.

The subject of data set [2] is DNA TA (DNA, aptamer) GGTTGGTGTGGTTGG
Put plainly: microscale thermophoresis. The conditions noted are these: 100 mM KCl; 25 mM PBS, pH 7.05, 25 °C, 200 nM aptamer.

Data set [3] concerns 2N3M (DNA, aptamer) TGGTGGTGGTTGTTGTGGTGGTGGTGGT
Put plainly: microscale thermophoresis, Hill fit. The conditions noted are these: 100 mM KCl; 25 mM potassium phosphate, pH 7.05, 25 °C, 200 nM aptamer.

In data set [4] the test system is DNA TA (DNA, aptamer) GGTTGGTGTGGTTGG
Briefly: microscale thermophoresis, Hill fit. The conditions noted are these: 100 mM KCl; 25 mM PBS, pH 7.05, 25 °C, 200 nM aptamer.

The subject of data set [5] is DNA TA (unlabeled, NMR) (DNA, aptamer) GGTTGGTGTGGTTGG
Briefly: 1H 1D and 2D NOESY NMR. The conditions noted are these: 100 mM KCl; 25 mM potassium phosphate, pH 7.4, 298 K, 10% D2O, 500 μM DNA, 2 equiv YER.

The subject of data set [6] is RNA TA (RNA, aptamer) GGUUGGUGUGGUUGG
Briefly: microscale thermophoresis, Hill fit. The conditions noted are these: 100 mM KCl; 25 mM PBS, pH 7.05, 40 °C, 200 nM aptamer.

The target in data set [7] is T1, QET tripeptide (RET analogue) (UniProt P19338 604-606, R604Q).
T1 chain: QET
Briefly: MST; 100 mM KCl, 25 C; MST: 200 nM FAM-oligo; 25 mM PBS pH 7.05, 100 mM KCl (DNA TA 25 C, RNA TA 40 C) or 25 mM K-phosphate pH 7.05, 100 mM KCl (2N3M, 25 C), Hill fit; NMR: 500 uM DNA TA, 25 mM K-phosphate pH 7.4, 100 mM KCl, 10% D2O, 298 K. The conditions noted are these: label: 5'-FAM; intramolecular G-quadruplex.

Data set [8] has as its target T2, REV tripeptide (RET analogue) (UniProt P19338 604-606, T606V).
T2 chain: REV
The description is as above. The conditions noted are these: label: 5'-FAM; intramolecular G-quadruplex.

The target in data set [9] is T3, RET tripeptide (nucleolin loop fragment) (UniProt P19338 604-606).
T3 chain: RET
Described as above. The conditions noted are these: label: 5'-FAM; intramolecular G-quadruplex.

Data set [10] concerns the target T4, YER tripeptide (thrombin loop fragment) (UniProt P00734 434-436).
T4 chain: YER
Described as above. The conditions noted are these: label: 5'-FAM; intramolecular G-quadruplex.

In another data set the target is T5, YE dipeptide (UniProt P00734 434-435).
T5 chain: YE
Described as above. The conditions noted are these: label: 5'-FAM; intramolecular G-quadruplex.

A further data set addresses T6, ER dipeptide (UniProt P00734 435-436).
T6 chain: ER
The description is as above. The conditions noted are these: label: 5'-FAM; intramolecular G-quadruplex.

The target in data set [11] is T7, RYE tripeptide (thrombin loop fragment) (UniProt P00734 433-435).
T7 chain: RYE
The description is as above. The conditions noted are these: label: 5'-FAM; intramolecular G-quadruplex.

In data set [12] the target is T8, ERN tripeptide (thrombin loop fragment) (UniProt P00734 435-437).
T8 chain: ERN
The description is as above. The conditions noted are these: label: 5'-FAM; intramolecular G-quadruplex.

The target in data set [13] is T4, YER tripeptide (thrombin loop fragment). Briefly: MST; 100 mM KCl, 40 C; MST: 200 nM FAM-oligo; 25 mM PBS pH 7.05, 100 mM KCl (DNA TA 25 C, RNA TA 40 C) or 25 mM K-phosphate pH 7.05, 100 mM KCl (2N3M, 25 C), Hill fit; NMR: 500 uM DNA TA, 25 mM K-phosphate pH 7.4, 100 mM KCl, 10% D2O, 298 K. The conditions noted are these: label: 5'-FAM; intramolecular G-quadruplex (modelled).

Where a SMILES comes first, the peptide text is derived from it.

The values that follow come from publication PMC9661473.

What is called Kd is the equilibrium constant for the complex coming apart.

For `C[C@@H](O)[C@H](N)C(=O)O`, the binding result in data set [1] is “no”. Regarding `N=C(N)NCCC[C@H](N)C(=O)O`, the binding result in data set [2] and in data set [1] was “no” throughout. As for `N[C@@H](CCC(=O)O)C(=O)O`, the binding entry in data set [2] and in data set [1] was “no” each time.

`N[C@@H](Cc1ccc(O)cc1)C(=O)O`: in [2], the binding entry is given as “no”. For `C[C@@H](O)[C@H](NC(=O)[C@H](CCC(=O)O)NC(=O)[C@@H](N)CCCNC(=N)N)C(=O)O` (H-Arg-Glu-Thr-OH), the Kd in [3] worked out at 0.1 ± 0.02 µM. With `CC(C)[C@H](NC(=O)[C@H](CCC(=O)O)NC(=O)[C@@H](N)CCCNC(=N)N)C(=O)O` (H-Arg-Glu-Val-OH), the binding entry in data set [1] is “no”. Turning to `N=C(N)NCCC[C@H](N)C(=O)N[C@@H](Cc1ccc(O)cc1)C(=O)N[C@@H](CCC(=O)O)C(=O)O` (H-Arg-Tyr-Glu-OH), the Kd in data set [4] was 52 ± 5 µM.

Consider `C[C@@H](O)[C@H](NC(=O)[C@H](CCC(=O)O)NC(=O)[C@@H](N)CCC(N)=O)C(=O)O` (H-Gln-Glu-Thr-OH), for which the binding entry in [1] was “no”.

`N=C(N)NCCC[C@H](NC(=O)[C@@H](N)CCC(=O)O)C(=O)N[C@@H](CC(N)=O)C(=O)O` (H-Glu-Arg-Asn-OH) yielded a dissociation constant Kd in [4] of 12 ± 1 µM. For the molecule `N=C(N)NCCC[C@H](NC(=O)[C@@H](N)CCC(=O)O)C(=O)O` (H-Glu-Arg-OH), the binding result in data set [2] is on record as “no”. Still for that read-out and setting: the same measure for `NC(N)=NCCC[C@H](NC(=O)[C@H](CCC(=O)O)NC(=O)[C@@H](N)Cc1ccccc1)C(=O)O` (H-Phe-Glu-Arg-OH): “no”. `N=C(N)NCCC[C@H](NC(=O)[C@H](CCC(=O)O)NC(=O)[C@@H](N)Cc1ccc(O)cc1)C(=O)O` (H-Tyr-Glu-Arg-OH): the binding entry in [5] is “yes”. The results for the Kd in [4] and in data set [6] were 5 ± 1 µM and 37 ± 9 µM, respectively. `NCCCC[C@H](NC(=O)[C@H](CCC(=O)O)NC(=O)[C@@H](N)Cc1ccc(O)cc1)C(=O)O` (H-Tyr-Glu-Lys-OH): the binding result in data set [2] was “no”. Same read-out and setting: the same measure for `N[C@@H](Cc1ccc(O)cc1)C(=O)N[C@@H](CCC(=O)O)C(=O)O` (H-Tyr-Glu-OH): “no”.

B1: 2N3M (AS1411 derivative, FAM) (structured_DNA)
DNA: TGGTGGTGGTTGTTGTGGTGGTGGTGGT
For the molecule B1, the binding result in data set [7] and in data set [8] was “no binding” throughout. In addition, the affinity in data set [9], expressed as Kd, was 0.1 ± 0.02 µM.

B2: DNA TA (FAM) (structured_DNA)
DNA: GGTTGGTGTGGTTGG
On to B2, for which the Kd was determined as 5 ± 1 µM in data set [10], 52 ± 5 µM in data set [11] and 12 ± 1 µM in [12]. In addition, the binding result with YE dipeptide and with ER dipeptide was “no binding” in each case.

B3: RNA TA (FAM) (structured_RNA)
RNA: GGUUGGUGUGGUUGG
Molecule B3 had a Kd in [13] of 37 ± 9 µM.
